Measured values from EP1092007B1, “A NEW IMPROVED ENZYME CONTAINING GRANULE” (Novozymes A/S, priority 1998, dated 2000).

Assay: Measurement of constant humidity values for coating compounds
Type: physicochemical
Conditions: 20°C; % RH of air over saturated aqueous solution
Experimental: The term "constant humidity" (in the context of the invention sometimes abbreviated as CH) of a compound or substance is to be understood as the % RH of atmospheric air in equilibrium with a saturated aqueous solution of said compound in contact with the solid phase of said compound, all confined within a closed space at a given temperature. […] Accordingly CH20 °C =50% for a compound means that air with a 50% humidity will be in equilibrium with a saturated aqueous solution of the compound at 20°C. Accordingly the term constant humidity is a measure of the hygroscopic properties of a compound.
The constant humidity of water soluble compound coating materials were measured by preparing a saturated aqueous solution with excess of solid phase of the compound in an open beaker.

Row | SMILES | CH20°C (constant humidity) [%]
1 | O=S(=O)([O-])[O-].[Na+].[Na+] [Na2SO4, sodium sulfate] | 93
2 | O=P([O-])(O)O.[K+] [KH2PO4] | 92
3 | O=P([O-])([O-])O.[Na+].[Na+] [Na2HPO4] | 95
4 | N.O=P(O)(O)O [(NH4)H2PO4] | 93.1
5 | O=S(=O)([O-])[O-].[Zn+2] [ZnSO4] | 90
6 | O=S(=O)([O-])O.[K+] [KHSO4] | 86

Same assay, conditions: 25°C

Row | SMILES | Constant humidities at 25°C
7 | O=C[O-].[Na+] [sodium formiate] | 56
8 | O=S(=O)([O-])[O-].[Na+].[Na+] [Na2SO4, sodium sulfate] | 93
9 | N.N.O=S(=O)(O)O [Ammonium sulfate] | 79
10 | O=C([O-])CC(O)(CC(=O)[O-])C(=O)[O-].[Na+].[Na+].[Na+] [sodium citrate] | 86

Same assay, conditions: 25°C; % RH of air over saturated aqueous solution

Row | SMILES | CH25°C (constant humidity) [%]
11 | O=S(=O)([O-])[O-].[K+].[K+] [Example K2SO4, K2SO4] | 99
12 | O=P([O-])([O-])[O-].[Na+].[Na+].[Na+] [Na3PO4] | 92
13 | O=C([O-])CC(O)(CC(=O)[O-])C(=O)[O-].[Na+].[Na+].[Na+] [sodium citrate] | 86
